ChEMBL document CHEMBL3885861, “Open TG-GATES”

Species on record: Rattus norvegicus
Test: Open TG-GATES - Regimen: Single
Format: toxicity, organism-based, Sprague-Dawley
Set-up: regimen Single, gender Male, age 6 weeks
Settings: in vivo, iv, 0 mg/kg, route intravenous injection, dose level Control; for APTT / Bas / Eos / Fbg / Hb / Ht / Lym / MCH / MCHC / MCV / Mono / Neu / PT / Plat / RBC / Ret / WBC: tissue Blood; for KIDNEY_L / KIDNEY_R / KIDNEY_TOTAL: tissue Kidney; for LIVER: tissue Liver; for A/G / ALP / ALT / AST / BUN / CRE / Ca / Cl / DBIL / GLC / IP / K / LDH / Na / PL / RALB / TBIL / TC / TG / TP / gamma-GTP: tissue Plasma

## C[C@@H]1C[C@@H]([C@H](O)CC2CC(=O)NC(=O)C2)C(=O)[C@@H](C)C1 [CYCLOHEXIMIDE]
3 h
  TERMINAL_BW: 221.4 g
  APTT: 21.8 s
  Bas: 0%
  Eos: 1%
  Fbg: 315.6 mg/dL
  Hb: 13.1 g/dL
  Ht: 39.2%
  Lym: 75.6%
  MCH: 21.3 pg
  MCHC: 33.3%
  MCV: 64 fL
  Mono: 2.8%
  Neu: 19.4%
  PT: 16.2 s
  Plat: 120.1 x10_4/uL
  RBC: 612.2 x10_4/ul
  Ret: 8.7%
  WBC: 95.6 x10_2/uL
  KIDNEY_L: 1 g
  KIDNEY_R: 1 g
  KIDNEY_TOTAL: 2 g
  LIVER: 10.2 g
  A/G: 1.2
  ALP: 1480.4 IU/L
  ALT: 44.4 IU/L
  AST: 75.4 IU/L
  BUN: 11.4 mg/dL
  CRE: 0.1 mg/dL
  Ca: 10.4 mg/dL
  Cl: 106.8 meq/L
  DBIL: 0.004 mg/dL
  GLC: 187 mg/dL
  IP: 9.1 mg/dL
  K: 4 meq/L
  LDH: 171.8 IU/L
  Na: 141 meq/L
  PL: 130.8 mg/dL
  RALB: 2.9 g/dL
  TBIL: 0.024 mg/dL
  TC: 76.8 mg/dL
  TG: 49.2 mg/dL
  TP: 5.2 g/dL
  gamma-GTP: 1.4 IU/L
6 h
  TERMINAL_BW: 214.4 g
  APTT: 22.6 s
  Bas: 0%
  Eos: 1%
  Fbg: 314.4 mg/dL
  Hb: 13.4 g/dL
  Ht: 39.9%
  Lym: 78.2%
  MCH: 21.4 pg
  MCHC: 33.6%
  MCV: 64 fL
  Mono: 2.8%
  Neu: 17.2%
  PT: 15.5 s
  Plat: 113.8 x10_4/uL
  RBC: 624 x10_4/ul
  Ret: 8.7%
  WBC: 88.7 x10_2/uL
  KIDNEY_L: 1 g
  KIDNEY_R: 1 g
  KIDNEY_TOTAL: 2 g
  LIVER: 9.4 g
  A/G: 1.3
  ALP: 1423 IU/L
  ALT: 38.6 IU/L
  AST: 71.6 IU/L
  BUN: 10 mg/dL
  CRE: 0.1 mg/dL
  Ca: 10.5 mg/dL
  Cl: 107.2 meq/L
  DBIL: 0.002 mg/dL
  GLC: 177 mg/dL
  IP: 9.2 mg/dL
  K: 4.2 meq/L
  LDH: 198.8 IU/L
  Na: 140.8 meq/L
  PL: 139.6 mg/dL
  RALB: 2.9 g/dL
  TBIL: 0.036 mg/dL
  TC: 78.6 mg/dL
  TG: 52 mg/dL
  TP: 5.2 g/dL
  gamma-GTP: 1.2 IU/L
9 h
  TERMINAL_BW: 215.8 g
  APTT: 23.2 s
  Bas: 0%
  Eos: 0.6%
  Fbg: 313.4 mg/dL
  Hb: 12.9 g/dL
  Ht: 38.5%
  Lym: 78.8%
  MCH: 20.8 pg
  MCHC: 33.4%
  MCV: 62.2 fL
  Mono: 2%
  Neu: 17.8%
  PT: 15.8 s
  Plat: 109.2 x10_4/uL
  RBC: 620.6 x10_4/ul
  Ret: 8.1%
  WBC: 65.1 x10_2/uL
  KIDNEY_L: 1 g
  KIDNEY_R: 1 g
  KIDNEY_TOTAL: 2 g
  LIVER: 9 g
  A/G: 1.3
  ALP: 1329.2 IU/L
  ALT: 37.4 IU/L
  AST: 71 IU/L
  BUN: 10 mg/dL
  CRE: 0.1 mg/dL
  Ca: 10.4 mg/dL
  Cl: 106.4 meq/L
  DBIL: 0.002 mg/dL
  GLC: 176 mg/dL
  IP: 9.7 mg/dL
  K: 3.9 meq/L
  LDH: 164.6 IU/L
  Na: 142.4 meq/L
  PL: 125.8 mg/dL
  RALB: 3 g/dL
  TBIL: 0.036 mg/dL
  TC: 72.4 mg/dL
  TG: 37.6 mg/dL
  TP: 5.4 g/dL
  gamma-GTP: 1.4 IU/L
24 h
  TERMINAL_BW: 229.3 g
  APTT: 22.3 s
  Bas: 0%
  Eos: 1%
  Fbg: 319.8 mg/dL
  Hb: 13.5 g/dL
  Ht: 40.3%
  Lym: 80.6%
  MCH: 21 pg
  MCHC: 33.5%
  MCV: 62.5 fL
  Mono: 2.8%
  Neu: 14.6%
  PT: 16 s
  Plat: 119 x10_4/uL
  RBC: 643.8 x10_4/ul
  Ret: 8.7%
  WBC: 90.5 x10_2/uL
  KIDNEY_L: 1 g
  KIDNEY_R: 1 g
  KIDNEY_TOTAL: 2 g
  LIVER: 11 g
  A/G: 1.2
  ALP: 1510.6 IU/L
  ALT: 38.2 IU/L
  AST: 65.8 IU/L
  BUN: 16 mg/dL
  CRE: 0.1 mg/dL
  Ca: 10.8 mg/dL
  Cl: 106 meq/L
  DBIL: 0 mg/dL
  GLC: 202.2 mg/dL
  IP: 7.7 mg/dL
  K: 4.2 meq/L
  LDH: 179.2 IU/L
  Na: 140.4 meq/L
  PL: 142.8 mg/dL
  RALB: 3 g/dL
